Data: US12543737B2, “Herbicidal composition and method for controlling weeds” (SUMITOMO CHEMICAL COMPANY, LIMITED, priority 2020, dated 2026)

Columns and labels:
[1] = tested on: waterhemp (Amaranthus tuberculatus=Amaranthus rudis=Amaranthus tamariscinus) having the substitution of an amino acid residue of G210Δ in PPX2; assay: Herbicidal effect, foliar spray pot test in greenhouse (Example 10); type: in vivo; conditions: 216 L/ha, 28 days after spraying, rating 0 to 100
[2] = tested on: waterhemp (Amaranthus tuberculatus=Amaranthus rudis=Amaranthus tamariscinus) having the substitution of an amino acid residue of G210Δ in PPX2; assay: Herbicidal effect, foliar spray pot test in greenhouse (Example 9); type: in vivo; conditions: spray volume 216 L/ha, 28 days after spraying, rating 0 to 100
[3] = glufosinate-ammonium 350 g/ha alone

## C#CCN1C(=O)C(F)(F)Oc2cc(F)c(-n3c(=O)n(C)c(=S)n(C)c3=O)cc21 [trifludimoxazin]
[1]; trifludimoxazin 0.5 g/ha alone
  Herbicidal effect: 10

## CP(=O)(O)CCC(N)C(=O)O (centres unmarked) [glufosinate-ammonium]
[2]; [3]
  Herbicidal effect: 37
[1]; [3]
  Herbicidal effect: 37

## CCOC(=O)COc1ncccc1Oc1cc(-n2c(=O)cc(C(F)(F)F)n(C)c2=O)c(F)cc1Cl [compound X, epyrifenacil]
[2]; compound X 0.5 g/ha alone
  Herbicidal effect: 17
[2]; compound X 1 g/ha alone
  Herbicidal effect: 18
